Where a SMILES comes first, the peptide text is derived from it. [ ]: non-standard residue; d: D form. The star is where a group is joined. NHCH2CH2OH = OCCN*; For = O=C*
Assays:
[1] = test system: Streptococcus pyogenes SSI-9; experiment: Antibacterial activity assay of bead-derived peptides (three concentrations); format: cell-based; design: key: +++: inhibition by the 640-fold diluted peptide solution; ++: inhibition by the 160-fold diluted solution; +: inhibition by the 40-fold diluted solution; -: no inhibition; details: S. pyogenes, bead-derived peptide solution, three concentrations
In short: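 Library peptide stock applied undiluted, 4-fold and 16-fold diluted in DMSO to S. pyogenes SSI-9 (2 × 10^5 CFU) in cation-adjusted Mueller Hinton broth with 5% laked horse blood. After 18 h at 37 °C, growth judged by visible cell precipitation.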

[2] = cell viability/%
In short: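 P388 cells at 1 × 10^4 cells/mL (final) were exposed to library peptides (stocks diluted 250-fold in RPMI1640/10% FBS) for 92 h at 37 °C, 5% CO2. Viable cells were counted by WST-1/1-methoxy PMS (4 h), absorbance 415 nm, and expressed as cell viability (%).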

[3] = H+/Na+ transport assay of bead-derived peptides (one-point); format: biochemical; design: key: relative activity; mean of two control wells = 1.00; details: bead-derived peptide solution, EYPC/EYPG LUVs;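 further: relative to parent gramicidin A activity set to 1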
In short: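 Pyranine (1.0 mM)-loaded LUVs containing egg yolk phosphatidylglycerol were prepared by film hydration, sonication and extrusion, then mixed with diluted bead-derived peptide in 96-well format and vortexed 30 min at room temperature. Fluorescence was normalized between untreated LUVs (0%) and Triton X-100 lysis (100%).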

| SMILES | antibacterial activity [1] | viability [2] [%] | H+/Na+ transport activity normalized against the value of 1 (1.00) [3] |
| --- | --- | --- | --- |
| CC(C)C[C@@H](NC(=O)[C@H](C)NC(=O)CNC(=O)[C@@H](NC=O)C(C)C)C(=O)N[C@@H](C)C(=O)N[C@@H](C(=O)N[C@H](C(=O)N[C@@H](C(=O)N[C@@H](Cc1c[nH]c2ccccc12)C(=O)N[C@H](CC(C)C)C(=O)N[C@@H](Cc1c[nH]c2ccccc12)C(=O)N[C@H](CC(C)C)C(=O)N[C@@H](Cc1c[nH]c2ccccc12)C(=O)N[C@@H](C(=O)N[C@@H](Cc1c[nH]c2ccccc12)C(=O)NCCO)C(C)C)[C@H](C)O)C(C)C)C(C)C [compound 200] (For-VGA[dL]A[dV]V[dT]W[dL]W[dL]W[dV]W-NHCH2CH2OH) | + | 100 | 1.04 |
| CC(C)C[C@@H](NC(=O)[C@H](C)NC(=O)CNC(=O)[C@@H](NC=O)C(C)C)C(=O)N[C@@H](C)C(=O)N[C@H](CC(C)C)C(=O)N[C@H](C(=O)N[C@@H](C(=O)N[C@@H](Cc1c[nH]c2ccccc12)C(=O)N[C@H](CC(C)C)C(=O)N[C@@H](Cc1c[nH]c2ccccc12)C(=O)N[C@@H](C(=O)N[C@@H](Cc1c[nH]c2ccccc12)C(=O)N[C@H](CC(C)C)C(=O)N[C@@H](Cc1c[nH]c2ccccc12)C(=O)NCCO)[C@H](C)O)[C@H](C)O)C(C)C [compound 1176] (For-VGA[dL]A[dL]V[dT]W[dL]W[dT]W[dL]W-NHCH2CH2OH) | - | 100 | 1.01 |
| CC(C)C[C@@H](NC(=O)[C@H](C)NC(=O)[C@H](NC(=O)[C@H](C)NC(=O)CNC(=O)[C@@H](NC=O)C(C)C)[C@H](C)O)C(=O)N[C@H](C(=O)N[C@@H](C(=O)N[C@@H](Cc1c[nH]c2ccccc12)C(=O)N[C@H](CC(C)C)C(=O)N[C@@H](Cc1c[nH]c2ccccc12)C(=O)N[C@H](CC(C)C)C(=O)N[C@@H](Cc1c[nH]c2ccccc12)C(=O)N[C@@H](C(=O)N[C@@H](Cc1c[nH]c2ccccc12)C(=O)NCCO)C(C)C)C(C)C)C(C)C [compound 4605] (For-VGA[dT]A[dL]V[dV]W[dL]W[dL]W[dV]W-NHCH2CH2OH) | - | 100 | 1.35 |
| CC(C)C[C@@H](NC(=O)[C@H](Cc1c[nH]c2ccccc12)NC(=O)[C@@H](CC(C)C)NC(=O)[C@@H](NC(=O)[C@H](NC(=O)[C@H](C)NC(=O)[C@H](NC(=O)[C@H](C)NC(=O)CNC(=O)[C@@H](NC=O)C(C)C)C(C)C)C(C)C)C(C)C)C(=O)N[C@@H](Cc1c[nH]c2ccccc12)C(=O)N[C@@H](C(=O)N[C@@H](Cc1c[nH]c2ccccc12)C(=O)N[C@@H](C(=O)N[C@@H](Cc1c[nH]c2ccccc12)C(=O)NCCO)C(C)C)[C@H](C)O [compound 79] (For-VGA[dV]A[dV]V[dL]W[dL]W[dT]W[dV]W-NHCH2CH2OH) | ++ | 100 | 1.14 |
| CC(C)C[C@@H](NC(=O)[C@H](C)NC(=O)[C@H](NC(=O)[C@H](C)NC(=O)CNC(=O)[C@@H](NC=O)C(C)C)C(C)C)C(=O)N[C@H](C(=O)N[C@@H](C(=O)N[C@@H](Cc1c[nH]c2ccccc12)C(=O)N[C@@H](C(=O)N[C@@H](Cc1c[nH]c2ccccc12)C(=O)N[C@@H](C(=O)N[C@@H](Cc1c[nH]c2ccccc12)C(=O)N[C@H](CC(C)C)C(=O)N[C@@H](Cc1c[nH]c2ccccc12)C(=O)NCCO)[C@H](C)O)C(C)C)C(C)C)C(C)C [compound 2727] (For-VGA[dV]A[dL]V[dV]W[dV]W[dT]W[dL]W-NHCH2CH2OH) | - | 100 | 1.05 |
| CC(C)C[C@@H](NC(=O)[C@H](C)NC(=O)CNC(=O)[C@@H](NC=O)C(C)C)C(=O)N[C@@H](C)C(=O)N[C@H](CC(C)C)C(=O)N[C@H](C(=O)N[C@H](CC(C)C)C(=O)N[C@@H](Cc1c[nH]c2ccccc12)C(=O)N[C@@H](C(=O)N[C@@H](Cc1c[nH]c2ccccc12)C(=O)N[C@H](CC(C)C)C(=O)N[C@@H](Cc1c[nH]c2ccccc12)C(=O)N[C@H](CC(C)C)C(=O)N[C@@H](Cc1c[nH]c2ccccc12)C(=O)NCCO)C(C)C)C(C)C [compound 2828] (For-VGA[dL]A[dL]V[dL]W[dV]W[dL]W[dL]W-NHCH2CH2OH) | - | 2.8 | 1.15 |
| CC(C)C[C@@H](NC(=O)[C@H](C)NC(=O)[C@H](NC(=O)[C@H](C)NC(=O)CNC(=O)[C@@H](NC=O)C(C)C)C(C)C)C(=O)N[C@H](C(=O)N[C@H](CC(C)C)C(=O)N[C@@H](Cc1c[nH]c2ccccc12)C(=O)N[C@@H](C(=O)N[C@@H](Cc1c[nH]c2ccccc12)C(=O)N[C@@H](C(=O)N[C@@H](Cc1c[nH]c2ccccc12)C(=O)N[C@H](CC(C)C)C(=O)N[C@@H](Cc1c[nH]c2ccccc12)C(=O)NCCO)C(C)C)C(C)C)C(C)C [compound 11126] (For-VGA[dV]A[dL]V[dL]W[dV]W[dV]W[dL]W-NHCH2CH2OH) | - | 8.7 | 1.07 |
| CNC(=O)C[C@@H](NC(=O)[C@H](C)NC(=O)[C@H](NC(=O)[C@H](C)NC(=O)CNC(=O)[C@@H](NC=O)C(C)C)C(C)C)C(=O)N[C@H](C(=O)N[C@H](CC(C)C)C(=O)N[C@@H](Cc1c[nH]c2ccccc12)C(=O)N[C@H](CC(C)C)C(=O)N[C@@H](Cc1c[nH]c2ccccc12)C(=O)N[C@@H](C(=O)N[C@@H](Cc1c[nH]c2ccccc12)C(=O)N[C@H](CC(C)C)C(=O)N[C@@H](Cc1c[nH]c2ccccc12)C(=O)NCCO)C(C)C)C(C)C [compound 1489] (For-VGA[dV]A[dD](NHMe)V[dL]W[dL]W[dV]W[dL]W-NHCH2CH2OH) | - | 100 | 1.03 |
| CC(C)C[C@@H](NC(=O)[C@H](Cc1c[nH]c2ccccc12)NC(=O)[C@H](NC(=O)[C@H](Cc1c[nH]c2ccccc12)NC(=O)[C@H](NC(=O)[C@H](Cc1c[nH]c2ccccc12)NC(=O)[C@H](NC(=O)[C@@H](NC(=O)[C@H](NC(=O)[C@H](C)NC(=O)[C@H](NC(=O)[C@H](C)NC(=O)CNC(=O)[C@@H](NC=O)C(C)C)[C@H](C)O)C(C)C)C(C)C)C(C)C)C(C)C)C(C)C)C(=O)N[C@@H](Cc1c[nH]c2ccccc12)C(=O)NCCO [compound 6606] (For-VGA[dT]A[dV]V[dV]W[dV]W[dV]W[dL]W-NHCH2CH2OH) | - | 100 | 1.03 |
| CC(C)C[C@@H](NC(=O)[C@H](Cc1c[nH]c2ccccc12)NC(=O)[C@@H](CC(C)C)NC(=O)[C@H](Cc1c[nH]c2ccccc12)NC(=O)[C@@H](CC(C)C)NC(=O)[C@H](Cc1c[nH]c2ccccc12)NC(=O)[C@H](NC(=O)[C@@H](NC(=O)[C@H](NC(=O)[C@H](C)NC(=O)[C@H](NC(=O)[C@H](C)NC(=O)CNC(=O)[C@@H](NC=O)C(C)C)C(C)C)C(C)C)C(C)C)[C@H](C)O)C(=O)N[C@@H](Cc1c[nH]c2ccccc12)C(=O)NCCO [compound 10353] (For-VGA[dV]A[dV]V[dT]W[dL]W[dL]W[dL]W-NHCH2CH2OH) | - | 100 | 1.02 |

From article PMC7531004, “Discovery of gramicidin A analogues with altered activities by multidimensional screening of a one-bead-one-compound library” (Nature Communications, 2020)
